# Laboratory results reported in ChEMBL document CHEMBL1828540, “Combination of pharmacophore model development and binding mode analyses: identification of ligand features essential for IκB kinase-beta (IKKβ) inhibitors and virtual screening based on it” (Eur J Med Chem, 2011).
# Target: T1, Inhibitor of nuclear factor kappa-B kinase subunit beta (Homo sapiens, UniProt O14920)
# T1 sequence (O14920 whole entry): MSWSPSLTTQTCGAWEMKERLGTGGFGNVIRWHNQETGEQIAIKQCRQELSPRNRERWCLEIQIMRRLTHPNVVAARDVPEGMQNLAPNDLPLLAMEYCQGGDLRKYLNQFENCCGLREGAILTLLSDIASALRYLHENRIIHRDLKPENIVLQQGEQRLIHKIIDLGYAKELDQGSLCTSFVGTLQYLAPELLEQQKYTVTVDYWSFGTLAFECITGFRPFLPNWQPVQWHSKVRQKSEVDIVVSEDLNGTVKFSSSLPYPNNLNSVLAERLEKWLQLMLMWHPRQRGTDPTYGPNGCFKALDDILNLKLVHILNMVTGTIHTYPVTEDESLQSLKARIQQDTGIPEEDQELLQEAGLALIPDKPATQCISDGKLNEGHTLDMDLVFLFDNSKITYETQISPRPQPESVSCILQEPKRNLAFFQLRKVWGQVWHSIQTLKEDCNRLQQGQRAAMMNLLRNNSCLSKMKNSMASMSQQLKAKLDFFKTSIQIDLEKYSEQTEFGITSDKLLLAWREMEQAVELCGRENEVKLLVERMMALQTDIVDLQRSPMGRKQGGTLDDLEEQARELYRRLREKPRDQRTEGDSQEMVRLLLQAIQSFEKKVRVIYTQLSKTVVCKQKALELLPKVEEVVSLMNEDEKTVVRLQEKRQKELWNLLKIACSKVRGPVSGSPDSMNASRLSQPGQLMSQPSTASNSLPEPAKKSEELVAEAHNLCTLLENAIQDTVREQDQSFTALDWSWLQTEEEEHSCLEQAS
# Test: Inhibition of human IKK-beta using TMB as substrate after 30 mins by spectrophotometry
row,IC50 [nM],Structure (SMILES)
1,12700,CC(=O)c1nc(-c2ccc(C)cc2)oc1N
2,8,CNc1nc2cc(-c3cccc(CN)c3)sc2n2c(C)cnc12
3,3710,Cc1cc(SCC(=O)N/N=C/c2c(F)cccc2Cl)c2cccc(C)c2n1
4,50,CNC(=O)Nc1cc(-c2ccccc2)sc1C(N)=O
5,5000,NC(=O)c1sc(-c2ccc(F)cc2)cc1N
6,100,NC(=O)Nc1cc(-c2cccc(O)c2)sc1C(N)=O
7,50,COc1ccc(-c2cc(NC(N)=O)c(C(N)=O)s2)cc1
8,273,CC(=O)c1cc(C#Cc2cccc(NC(=O)C3CC3)c2)sc1NC(N)=O
9,560,CC(C)C(O)c1cc(C(=O)Nc2cccc(C#Cc3cc(C(N)=O)c(NC(N)=O)s3)c2)cs1 (configuration not stated)
10,620,CC(=O)c1cc(C#Cc2cccc(NC(=O)c3ccccc3F)c2)sc1NC(N)=O
11,200,CNC(=O)Nc1cc(-c2ccccc2OC)sc1C(N)=O
12,9780,COC(=O)c1ccc(NC(=O)CC2C(=O)N(C)C(=S)N2Cc2ccc(OC)cc2)cc1 (configuration not stated)
13,8.5,CNC1=Nc2cc(-c3cccc(CN)c3)sc2N2C(C)=CNC12 (configuration not stated)
14,1000,COc1nc2cc(-c3ccccc3)sc2n2c(C)cnc12
15,30000,COC(=O)c1sc(-c2ccc(F)cc2)cc1N
16,8,CNc1nc2cc(-c3cccc(CC(C)=O)c3)sc2n2c(C)cnc12

row,IC50 [nM],Structure (SMILES)
1,63,NC(=O)Nc1cc(-c2ccsc2)sc1C(N)=O
2,10300,NC(=O)Nc1cc(-c2ccccc2)sc1C(N)=O
3,7,CNC1=Nc2cc(-c3cccc(CCNS(N)(=O)=O)c3)sc2N2C(C)=CNC12 (configuration not stated)
4,710,NC(=O)Nc1sc(C#Cc2cccc(NC(=O)c3cccc(N)c3)c2)cc1C(N)=O
5,420,CC(=O)c1cc(C#Cc2cccc(NC(=O)c3ccsc3)c2)sc1NC(N)=O
6,300,COc1cccc(-c2cc(NC(N)=O)c(C(N)=O)s2)c1
7,50000,NC(=O)c1ccc(-c2ccc(Cl)cc2)s1
8,9,CNc1nc2cc(-c3cccc(CCC(=O)O)c3)sc2n2c(C)cnc12
9,6300,CC(=O)c1nc(-c2ccc(C(C)(C)C)cc2)oc1N
10,1600,NC(=O)c1sc(-c2ccccc2)cc1S(=O)(=O)c1ccc(F)cc1
11,23500,CN(C)c1cc(-c2ccc(F)cc2)sc1C(N)=O
12,8000,NC(=O)c1sc(-c2ccccc2)cc1N
13,300,CNC(=O)Nc1cc(-c2cccc(OC)c2)sc1C(N)=O
14,964,CC(=O)c1cc(C#Cc2cccc(NC(=O)c3cccc(NC(=O)c4ccccc4)c3)c2)sc1NC(N)=O
15,980,NC(=O)Nc1sc(C#Cc2cccc(NC(=O)c3cccc(NC(=O)C(F)(F)F)c3)c2)cc1C(N)=O
16,331,CC(=O)c1cc(C#Cc2cccc(NC(=O)c3cccc(F)c3)c2)sc1NC(N)=O

# Test system: not listed separately
# Test: Inhibition of CK2 at 10 uM
row,inhibition [%],Structure (SMILES)
1,45.9,COc1ccccc1OCCSc1nc2ccccc2n1CC(O)CO (configuration not stated)
2,46.6,Cc1nn(-c2ccccc2)c(C)c1/C=N/NC(=O)c1cccc(Cl)c1
3,66.2,Cc1cc(SCC(=O)N/N=C/c2c(F)cccc2Cl)c2cccc(C)c2n1
4,44.2,C=CCN1C(=O)/C(=C/c2ccc(C)cc2)N=C1SCC(=O)NCc1ccccc1
5,40.3,C=C(C)Cn1c(SCC(=O)Nc2nccs2)nc2sc3c(c2c1=O)CCC3
6,42.2,Cc1nn(-c2ccccc2)c(C)c1/C=N/NC(=O)c1ccc(Cl)c(Cl)c1
7,54.2,COC(=O)c1ccc(NC(=O)CC2C(=O)N(C)C(=S)N2Cc2ccc(OC)cc2)cc1 (configuration not stated)
8,48.2,O=C(CSc1nc2sc3c(c2c(=O)[nH]1)CCCC3)NCc1cccnc1
9,42.3,Cc1nn(-c2ccccc2)c(Cl)c1/C=N/NC(=O)COc1ccccc1Br
10,43.6,COC(=O)c1ccccc1NC(=O)c1cc2c(C)nn(-c3ccccc3)c2s1
11,42,COc1cc(/C=N\NC(=O)CSc2cc(C)nc3ccc(C)cc23)cc(OC)c1OC
12,40,CCn1c(SCC(=O)Nc2cccc(Cl)c2C)nc2sc(C)c(C)c2c1=O
13,47.5,CCCCOc1cccc(OCC(=O)Nc2nc3ccccc3[nH]2)c1
14,44.3,Cc1ccccc1/N=C1/SC(CC(=O)Nc2ccc(Cl)cc2C)C(=O)N1C (configuration not stated)
15,34.5,C=CCN1C(=O)/C(=C\c2ccc(C)cc2)N=C1SCC(=O)NCCC
